This is an account of results in the supplement of paper PMC10307832.

Holding throughout (assay): relative viability (nuclei count vs DMSO), 5 days (fraction); higher = more cells survive
Compound in experiment [1]: C/C(=N\NC(=S)N1CCC1)/C2=CC=CC=N2 + C[C@@H](Oc1cc(-c2cnn(C3CCNCC3)c2)cnc1N)c1c(Cl)ccc(F)c1Cl [Crizotinib] (partner 1 µM)
In outline:
(§1)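 Lung cancer cell lines were seeded in 1536-well plates and dosed by pin tool the next day, with either a single drug or a fixed anchor-drug dose combined with five library-drug doses (not always all listed) spaced in √10 steps. Five days later, one step fixed the cells and stained their nuclei (final 0.05% Triton X-100, 1% formaldehyde, 1 ug/ml Hoechst), and nuclei were counted on 4× images. Relative viability is the nuclei count in treated wells divided by the count in vehicle wells, and each value is the median of duplicate plates.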

Compound in experiment [2]: C/C(=N\NC(=S)N1CCC1)/C2=CC=CC=N2 + Cc1nc(Nc2ncc(C(=O)Nc3c(C)cccc3Cl)s2)cc(N2CCN(CCO)CC2)n1 [Dasatinib] (partner 0.075 µM)
A digest of the protocol:
as §1

Compound in experiment [3]: C/C(=N\NC(=S)N1CCC1)/C2=CC=CC=N2 + O=C(CCCCCCC(=O)Nc1ccccc1)NO [Vorinostat] (partner 1 µM)
A digest of the protocol:
as §1

Compound in experiment [4]: C/C(=N\NC(=S)N1CCC1)/C2=CC=CC=N2 + CC1(C)CCC(c2ccc(Cl)cc2)=C(CN2CCN(c3ccc(C(=O)NS(=O)(=O)c4ccc(N[C@H](CCN5CCOCC5)CSc5ccccc5)c(S(=O)(=O)C(F)(F)F)c4)cc3)CC2)C1 [Navitoclax] (partner 0.5 µM)
A digest of the protocol: as §1

In the case of NCI-H1666, the relative viability in experiment [1] (first compound 0.05 µM) was determined as 0.204; in experiment [1] (first compound 0.1581 µM), 0.221; in experiment [1] (first compound 0.5 µM), 0.216; in experiment [1] (first compound 1.581 µM), 0.195; in experiment [1] (first compound 5 µM), 0.207; in experiment [2] (first compound 0.05 µM), 0.335. Moreover, the relative viability in experiment [2] (first compound 0.1581 µM) came out at 0.307; in experiment [2] (first compound 0.5 µM) it was 0.301; in experiment [2] (first compound 1.581 µM), 0.28; in experiment [2] (first compound 5 µM), 0.296; in experiment [3] (first compound 0.05 µM), 0.575; in experiment [3] (first compound 0.1581 µM), 0.579. For the same cell line, the relative viability came out at 0.538 in experiment [3] (first compound 0.5 µM); 0.501 in experiment [3] (first compound 1.581 µM); 0.494 in experiment [3] (first compound 5 µM); 0.185 in experiment [4] (first compound 0.05 µM); 0.248 in experiment [4] (first compound 0.1581 µM); 0.208 in experiment [4] (first compound 0.5 µM). Further, the relative viability turned out to be 0.248 in experiment [4] (first compound 1.581 µM) and 0.262 in experiment [4] (first compound 5 µM).
Turning to NCI-H1355, the relative viability in experiment [1] (first compound 0.05 µM) was found to be 0.318; in experiment [1] (first compound 0.1581 µM), 0.63; in experiment [1] (first compound 0.5 µM), 0.189; in experiment [1] (first compound 1.581 µM), 0.151; in experiment [1] (first compound 5 µM) it was 0.172; in experiment [2] (first compound 0.05 µM), 0.198. In addition, the relative viability in experiment [2] (first compound 0.1581 µM) came out at 0.194; in experiment [2] (first compound 0.5 µM), 0.187; in experiment [2] (first compound 1.581 µM), 0.168; in experiment [2] (first compound 5 µM) it was 0.15; in experiment [3] (first compound 0.05 µM) it was 0.165; in experiment [3] (first compound 0.1581 µM) it was 0.174. Besides, the relative viability in experiment [3] (first compound 0.5 µM) stood at 0.148; in experiment [3] (first compound 1.581 µM), 0.171; in experiment [3] (first compound 5 µM), 0.144; in experiment [4] (first compound 0.05 µM) it was 0.181; in experiment [4] (first compound 0.1581 µM) it was 0.718; in experiment [4] (first compound 0.5 µM), 0.129. The results for the relative viability in experiment [4] (first compound 1.581 µM) and in experiment [4] (first compound 5 µM) were 0.143 and 0.165, respectively.
With HCC-827, the relative viability worked out at 0.675 in experiment [1] (first compound 0.05 µM); 0.894 in experiment [1] (first compound 0.1581 µM); 0.307 in experiment [1] (first compound 0.5 µM); 0.296 in experiment [1] (first compound 1.581 µM); 0.204 in experiment [1] (first compound 5 µM); 0.292 in experiment [2] (first compound 0.05 µM). The relative viability in experiment [2] (first compound 0.1581 µM) amounted to 0.302; in experiment [2] (first compound 0.5 µM), 0.21; in experiment [2] (first compound 1.581 µM), 0.241; in experiment [2] (first compound 5 µM), 0.283; in experiment [3] (first compound 0.05 µM) it was 0.251; in experiment [3] (first compound 0.1581 µM), 0.214. The relative viability in experiment [3] (first compound 0.5 µM) came to 0.18; in experiment [3] (first compound 1.581 µM) it was 0.233; in experiment [3] (first compound 5 µM) it was 0.149; in experiment [4] (first compound 0.05 µM), 0.639; in experiment [4] (first compound 0.1581 µM), 1.02; in experiment [4] (first compound 0.5 µM), 0.308. For the same cell line, the relative viability in experiment [4] (first compound 1.581 µM) turned out to be 0.273; in experiment [4] (first compound 5 µM) it was 0.241.
For HARA, the relative viability stood at 0.361 in experiment [1] (first compound 0.05 µM); 0.227 in experiment [1] (first compound 0.1581 µM); 0.152 in experiment [1] (first compound 0.5 µM); 0.115 in experiment [1] (first compound 1.581 µM); 0.0965 in experiment [1] (first compound 5 µM); 0.0909 in experiment [2] (first compound 0.05 µM). Further, the relative viability in experiment [2] (first compound 0.1581 µM) came out at 0.0673; in experiment [2] (first compound 0.5 µM), 0.0699; in experiment [2] (first compound 1.581 µM), 0.063; in experiment [2] (first compound 5 µM) it was 0.083; in experiment [3] (first compound 0.05 µM), 0.0948; in experiment [3] (first compound 0.1581 µM), 0.381. The relative viability was 0.0375 in experiment [3] (first compound 0.5 µM); 0.076 in experiment [3] (first compound 1.581 µM); 0.0809 in experiment [3] (first compound 5 µM); 0.361 in experiment [4] (first compound 0.05 µM); 0.165 in experiment [4] (first compound 0.1581 µM); 0.212 in experiment [4] (first compound 0.5 µM). The relative viability in experiment [4] (first compound 1.581 µM) is 0.124; in experiment [4] (first compound 5 µM), 0.11.
